Where “and” joins values, the source holds several entries; their conditions need not be identical. Identical values can stand only once. Like-named read-outs stand apart in the source and are kept apart here.
Columns and labels:
[1] = system: P. berghei-ANKA-GFP-LucCON liver stage parasites in HepG2-A16-CD81EGFP cells; test: P. berghei liver stage Pb-Luc assay, Method 1 (UCSD, 1536-well); assay type: cell-based, Plasmodium berghei; conditions: for activity at 1 µM / activity at 3 µM: Plasmodium berghei, 48 h; for activity at 1 µM / activity at 3 µM / PbLuc 1uM growth rep1 / PbLuc 1uM growth rep2 / PbLuc 3uM growth rep1 / PbLuc 3uM growth rep2 / Average P. berghei 3 µM response( %) / Average P. berghei 1 µM response (%): P. berghei liver stage; for activity at 1 µM / PbLuc 1uM growth rep1 / PbLuc 1uM growth rep2: 1 µM compound treatment (10 mM stocks); for activity at 1 µM / activity at 3 µM / PbLuc 1uM growth rep1 / PbLuc 1uM growth rep2 / PbLuc 3uM growth rep1 / PbLuc 3uM growth rep2: average of 2 wells on a 1536 well plate; for activity at 3 µM / PbLuc 3uM growth rep1 / PbLuc 3uM growth rep2: 3 µM compound treatment (10 mM stocks); for Average P. berghei 3 µM response( %) / Average P. berghei 1 µM response (%): averaged response (percent); for Average P. berghei 1 µM response (%): the header list (r8) defines it as the 1 µM dose
[2] = system: Plasmodium falciparum Dd2 asexual blood stage parasites; test: microbe, parasite or virus in culture; parameters: species or system Plasmodium falciparum Dd2 in human erythrocytes; single determination (one 11-point concentration-response curve); conditions: Plasmodium falciparum, DD2, Erythrocyte, 72 h; read-out: AC50
HepG2-A16-CD81EGFP cells = conditions: for HepG2 1uM growth rep1 / HepG2 1uM growth rep2: HepG2, 1 µM compound treatment (10 mM stocks); for HepG2 1uM growth rep1 / HepG2 3uM growth rep1: replicate 1, normalized; for HepG2 1uM growth rep1 / HepG2 1uM growth rep2 / HepG2 3uM growth rep1 / HepG2 3uM growth rep2: average of 2 wells; for HepG2 1uM growth rep2 / HepG2 3uM growth rep2: replicate 2, normalized; for HepG2 3uM growth rep1 / HepG2 3uM growth rep2: HepG2, 3 µM compound treatment (10 mM stocks); for Average HepG2 3 µM response( %): averaged response (percent)
[3] = replicate 1, normalized, read-out: PbLuc 1uM growth rep1
[4] = replicate 2, normalized, read-out: PbLuc 1uM growth rep2
[5] = replicate 1, normalized, read-out: PbLuc 3uM growth rep1
[6] = replicate 2, normalized, read-out: PbLuc 3uM growth rep2
[7] = HepG2, the header list (r10) describes it as the 1 µM dose

| SMILES | activity at 1 µM [1, 3] [%] | activity at 1 µM [1, 4] [%] | activity at 3 µM [1, 5] [%] | activity at 3 µM [1, 6] [%] | AC50 [2] [µM] | HepG2 1uM growth rep1 (HepG2-A16-CD81EGFP cells) [%] | HepG2 1uM growth rep2 (HepG2-A16-CD81EGFP cells) [%] | HepG2 3uM growth rep1 (HepG2-A16-CD81EGFP cells) [%] | HepG2 3uM growth rep2 (HepG2-A16-CD81EGFP cells) [%] | PbLuc 1uM growth rep1 ([1]; replicate 1, normalized) [%] | PbLuc 1uM growth rep2 ([1]; replicate 2, normalized) [%] | PbLuc 3uM growth rep1 ([1]; replicate 1, normalized) [%] | PbLuc 3uM growth rep2 ([1]; replicate 2, normalized) [%] | also measured |
| --- | --- | --- | --- | --- | --- | --- | --- | --- | --- | --- | --- | --- | --- | --- |
| CN(C)Cc1c(O)ccc2oc(Cc3ccccc3)cc12 [MLS000039159-01] | 98 | 102 | 63 | 108 | 0.422 | 108 | 93 | 87 | 92 |  |  |  |  |  |
| Cc1cc(N2CCN(C3CCCC3)CC2)n2c(nc3ccccc32)c1C#N [MLS000039270-01] | 103 | 109 | 75 | 112 | 1.06 | 91 | 87 | 89 | 90 |  |  |  |  |  |
| Cc1ccc(-c2nn(-c3ccccc3)c3[nH]c(=O)c(CNCc4ccccc4)cc23)cc1 [MLS000067457-01] | 76 | 56 | 38 | 42 | 0.422 | 95 | 94 | 91 | 100 |  |  |  |  |  |
| COc1ccc(OC)c(-n2c(S)nnc2-c2cccc(O)c2)c1 [MLS000089016-01] | 141 | 98 | 86 | 109 | 4.22 | 97 | 93 | 90 | 96 |  |  |  |  |  |
| Oc1c(Cl)cc(Cl)cc1CN1CCN(Cc2ccccc2)CC1 [MLS000106505-01] | 108 | 103 | 88 | 103 | 0.668 | 105 | 94 | 90 | 94 |  |  |  |  |  |
| O=C(CCl)Nc1ccc(Oc2cnc3ccccc3n2)cc1 [MLS000327546-01] | 99 | 119 | 104 | 138 | 3.35 | 90 | 86 | 92 | 90 |  |  |  |  |  |
| Cc1ccc(Sc2ccc(NC(=O)CCl)cc2)cc1C [MLS000334846-01] | 124 | 83 | 88 | 81 | 9.44 | 92 | 91 | 92 | 96 |  |  |  |  |  |
| Clc1ccc2c(N/N=C/c3cccc(Br)c3)ccnc2c1 [MLS000336198-01] | 63 | 77 | 45 | 62 | 10.6 | 83 | 80 | 87 | 87 |  |  |  |  |  |
| CC1CCN(c2ccc(C(=O)NCc3ccco3)cc2[N+](=O)[O-])CC1 [MLS000389854-01] | 63 | 57 | 20 | 28 | 6.68 | 91 | 90 | 88 | 94 |  |  |  |  |  |
| Cc1ccc(-c2cc(C(=O)Nc3ccc(S(=O)(=O)N4CC(C)OC(C)C4)cc3)[nH]n2)c(O)c1 (stereo not drawn) [MLS000779230-01] |  |  |  |  |  | 106 | 100 | 84 | 94 | 151 | 112 | 73 | 94 |  |
| CC(=O)OC[C@]12CCC(C)=C[C@H]1O[C@@H]1[C@H](O)[C@@H](OC(C)=O)[C@@]2(C)[C@]12CO2 [MLS000863617-01] |  |  |  |  |  |  |  |  |  |  |  |  |  | Pb-Luc (P. berghei liver stage luciferase signal), % of control, repeat 1 [1]: 4.68% and -0.33%; Pb-Luc (P. berghei liver stage luciferase signal), % of control, repeat 2 [1]: 4.34% and -1.04%; Pb-Luc (P. berghei liver stage luciferase signal), % of control, repeat 3 [1]: -2.60% and 1.77%; HepG2 viability, % of control, column 14 (HepG2-A16-CD81EGFP cells): 5.74%; HepG2 viability, % of control, column 15 (HepG2-A16-CD81EGFP cells): 8.75%; HepG2 viability, % of control, column 16 (HepG2-A16-CD81EGFP cells): 5.74%; HepG2 viability, % of control, column 17 (HepG2-A16-CD81EGFP cells): 8.75% |
| Br.N=c1n(CCN2CCCCC2)c2ccccc2n1CC(=O)c1ccc(Cl)c(Cl)c1 [MLS001042209-01] |  |  |  |  |  | 87 | 90 | 85 | 90 | 90 | 95 | 75 | 102 |  |
| CC(C)N(Cc1ccccc1)C(=O)CN1C(=O)COc2ccc(S(=O)(=O)N3CCCCCC3)cc21 [MLS001124552-01] |  |  |  |  |  | 91 | 91 | 88 | 90 | 121 | 115 | 113 | 144 |  |
| CCSc1nc2sc3c(c2c(=O)n1-c1ccccc1)CCN(C(C)C)C3 [MLS001173590-01] |  |  |  |  |  | 104 | 95 | 87 | 98 | 97 | 84 | 60 | 65 |  |
| C=C(C)CSc1nc2sc3c(c2c(=O)n1-c1ccc(C)cc1)CCN(C)C3 [MLS001173676-01] |  |  |  |  |  | 102 | 92 | 84 | 90 | 91 | 84 | 44 | 74 |  |
| O=C1N(c2ccccc2C(F)(F)F)OC1(Cc1ccccc1)c1ccccc1 (stereo not drawn) [MLS002206595-01] |  |  |  |  |  | 104 | 93 | 82 | 88 | 103 | 105 | 93 | 118 |  |
| COc1ccccc1[C@@]1(C)ON(c2ccccc2C(F)(F)F)C1=O [MLS002206613-01] |  |  |  |  |  | 103 | 96 | 83 | 94 | 129 | 87 | 95 | 109 |  |
| O=C(CCCCCCC(=O)Nc1ccccc1)NO [NCGC00168085-22] |  |  |  |  |  |  |  |  |  |  |  |  |  | Pb-Luc signal, 1 uM, repeat 1 ([1]; nominal 1 uM (10 mM stock), […] for 15 mM, 1.2 uM for 12 mM, 2 uM for 20 mM stock, average of 2 wells, 1536-well plate, repeat 1): 18.69%; Pb-Luc signal, 1 uM, repeat 2 ([1]; nominal 1 uM (10 mM stock), […] for 15 mM, 1.2 uM for 12 mM, 2 uM for 20 mM stock, average of 2 wells, 1536-well plate, repeat 2): 22.42%; Pb-Luc signal, 1 uM, repeat 3 ([1]; nominal 1 uM (10 mM stock), […] for 15 mM, 1.2 uM for 12 mM, 2 uM for 20 mM stock, average of 2 wells, 1536-well plate, repeat 3): 16.08%; Pb-Luc signal, 3 uM, repeat 1 ([1]; nominal 3 uM (10 mM stock), 4.5 uM for 15 mM, 3.6 uM for 12 mM, 6 uM for 20 mM stock, average of 2 wells, 1536-well plate, repeat 1): 2.01%; Pb-Luc signal, 3 uM, repeat 2 ([1]; nominal 3 uM (10 mM stock), 4.5 uM for 15 mM, 3.6 uM for 12 mM, 6 uM for 20 mM stock, average of 2 wells, 1536-well plate, repeat 2): 4.89%; Pb-Luc signal, 3 uM, repeat 3 ([1]; nominal 3 uM (10 mM stock), 4.5 uM for 15 mM, 3.6 uM for 12 mM, 6 uM for 20 mM stock, average of 2 wells, 1536-well plate, repeat 3): 2.03%; HepG2 viability signal, 1 uM, repeat 1 (HepG2-A16-CD81EGFP cells): 84.33%; HepG2 viability signal, 1 uM, repeat 2 (HepG2-A16-CD81EGFP cells): 78.31%; HepG2 viability signal, 3 uM, repeat 1 (HepG2-A16-CD81EGFP cells): 48.31%; HepG2 viability signal, 3 uM, repeat 2 (HepG2-A16-CD81EGFP cells): 48.65% |
| COc1cc(OC)c(OC)cc1CN1CCc2nc(N(C)C)[nH]c(=O)c2CC1 [NCGC00440589] |  |  |  |  |  |  |  |  |  |  |  |  |  | Average P. berghei 3 µM response( %) [1]: 112%; Average P. berghei 1 µM response (%) [1]: 99%; Average HepG2 3 µM response( %) (HepG2-A16-CD81EGFP cells; HepG2, 3 µM dose): 100%; Average HepG2 3 µM response( %) (HepG2-A16-CD81EGFP cells; [7]): 102% |
| Cc1cc(C)n(Cc2ccc(C(=O)N3CCC(c4noc(-c5cccnc5)n4)C3)o2)n1 (stereo not drawn) [NCGC00441856] |  |  |  |  |  |  |  |  |  |  |  |  |  | Average P. berghei 3 µM response( %) [1]: 100%; Average P. berghei 1 µM response (%) [1]: 107%; Average HepG2 3 µM response( %) (HepG2-A16-CD81EGFP cells; HepG2, 3 µM dose): 104%; Average HepG2 3 µM response( %) (HepG2-A16-CD81EGFP cells; [7]): 103% |
